Laboratory results from patent US7906486B2, “Method of treating or preventing tissue deterioration, injury or damage due to disease of mucosa” (SciClone Pharmaceuticals, Inc., priority 2007, dated 2011).
Values joined by “and” are separate entries in the source; they are usually repeats but may differ in a detail not shown here. Equal values may be shown once.

Tests used:
[1] = test system: thymocyte and lymphocyte; conditions: in vitro; cited from earlier work
[2] = test system: oral mucositis induced by cis-platin 5 mg/kg and radiation 35 Gy (left cheek pouch); assay: Oral mucositis induced by a combination of cisplatin and acute radiation in hamsters, mucositis scoring (Example 4, SCI-04); type: in vivo, Syrian Golden Hamsters; design: key to Mucositis score, day 6 / Mucositis score, day 8: 0: Pouch completely healthy. No erythema or vasodilation.; 1: Light to severe erythema and vasodilation. No erosion of mucosa.; 2: Severe erythema and vasodilation. Erosion of superficial aspects of mucosa leaving denuded areas. Decreased stippling of mucosa.; 3: Formation of off-white ulcers in one or more places. Ulcers may have a yellow/gray due to pseudomembrane. Cumulative size of ulcers should equal about ¼ of the pouch. Severe erythema and vasodilation.; 4: Cumulative seize of ulcers should equal about ½ of the pouch. Loss of pliability. Severe erythema and vasodilation.; 5: Virtually all of pouch is ulcerated. Loss of pliability (pouch can only partially be extracted from mouth); key to peak mean mucositis score: standard six-point oral mucositis scale; ulceration = score ≥3; conditions: for % Days >=3 / Days <3 / Days >=3: qd, sc, Days −1 to 20; for Days >=3: animal days with mucositis score of three or more
Procedure: Forty Golden Syrian hamsters were prospectively randomized into four equally sized groups. Mucositis was induced on the left cheek pouch mucosa of golden Syrian hamsters by a single dose of cis-platin at 5 mg/kg given on day −1, and a single dose of radiation administered on day 0 at a dose of 35Gy. Beginning on day −1 and continuing once daily until day 20, SCV-07 was given by sub-cutaneous injection at doses of 10 μg/kg, 100 μg/kg or 1 mg/kg in a volume of 100 μL. Animals' activity and weight were evaluated daily. Beginning on day 6 and continuing on alternate days for the duration of the study, oral mucositis was evaluated using a standard scoring six point scale. The number of days of ulcerative mucositis was evaluated using a Chi-squared test of scores of ≧3 throughout the study, and the individual daily group scores were assessed with a Rank Sum Test.
The chemo-radiation model of oral mucositis in hamsters, developed by the Principal Investigator, has proven to be an accurate, efficient and cost-effective technique to provide a preliminary evaluation of anti-mucositis compounds. In this model, hamsters received a single dose of cis-platin at 5 mg/kg on day −1, followed by a single dose of radiation of 35 Gy to the left cheek pouch on day 0, rather than the single dose of 40 Gy on day 0 that is used in acute radiation studies. The course of mucositis in this model is very similar to the acute radiation model and results in peak mucositis scores approximately 16-18 days following radiation.
Hamsters received a single dose of cis-platin at 5 mg/kg on day −1 by intra-peritoneal injection, followed by a single dose of radiation of 35 Gy to the left cheek pouch on day 0. This was accomplished by anesthetizing the animals and everting the left buccal pouch, while protecting the rest of the animal's bodies with a lead shield. Test materials were given by sub-cutaneous injection once daily as detailed in Table 13. Mucositis was evaluated clinically starting on day 6, and continuing on alternate days until day 28. Test articles were given as from day −1 to day 20.
The grade of mucositis was scored, beginning day 6, and for every second day thereafter, through and including day 28. The effect on mucositis of each drug treatment compared to placebo was assessed according to the following parameters:
On each evaluation day, the number of animals with a blinded mucositis score of ≧3 in each drug treatment group was compared to the control group. Differences were compared on a cumulative basis and statistical significance was determined by chi-square analysis. Efficacy, in this analysis, is defined by a significant reduction in the number of days that a group of animals had ulcerations (scores 3) when compared to the control group.
For each evaluation day the scores of the control group were compared to those of the treated groups using non-parametric rank sum analysis. Treatment success was considered as a statistically significant lowering of scores in the treated group on 2 or more days from day 6 to day 28.
Forty (40) male Syrian Golden Hamsters were given an intraperitoneal injection of 5 mg/kg Cisplatin on day −1. On day 0 all animals were given an acute radiation dose of 35 Gy directed to their left buccal cheek pouch. This was accomplished by anesthetizing the animals and everting the left buccal pouch, while protecting the rest of the animals with a lead shield. Test materials were given by subcutaneous injection once daily as detailed in Table 13. Mucositis was evaluated clinically starting on Day 6, and continued on alternate days until day 28.
In this study, mucositis was induced with a combination of Cis-platin and radiation. Cis-platin was given as a single injection (IP) of 5 mg/kg on day −1. Radiation was given as a single focal dose of 35 Gy on day 0. Radiation was generated with a Philips 160 kVp (kilovolt potential) (18.75-ma) X-ray source at a focal distance of 30 cm, with a 3.0 mm hardened Al filtration system. […]

[3] = Weights and survival (Example 1, SCI-01); type: in vivo, Syrian Golden Hamsters
Procedure: All animals were weighed daily and their survival recorded, in order to assess possible differences in animal weight among treatment groups as an indication for mucositis severity and/or possible toxicity resulting from the treatments.
The mean daily percent weight change data was evaluated. The saline (PBS) treated control hamsters gained an average of 70.4% of their starting weight during the study. Hamsters in the group receiving SCV-07 at 1 ug/kg on days −1 to 16 gained an average of 68.4% of their starting weight during the study. Hamsters in the group receiving SCV-07 at 10 ug/kg on days −1 to 16 gained an average of 70.3% of their starting weight during the study. Hamsters in the group receiving SCV-07 at 100 ug/kg on days −1 to 16 gained an average of 82.0% of their starting weight during the study. The significance of these differences was evaluated by calculating the area-under-the-curve (AUC) for the weight gain of each animal, and then comparing the different treatment groups using a One-Way ANOVA test.

[4] = printed 100 ug/kg on days -1 to 20 (second such statement, third treated group)

SMILES: N[C@H](CCC(=O)N[C@@H](Cc1c[nH]c2ccccc12)C(=O)O)C(=O)O [SCV-07, γ-D-glutamyl-L-tryptophan]
- Con-A-induced thymocyte and lymphocyte proliferation [1]: increases
- P, daily mucositis scores (Mann-Whitney rank sum) vs saline controls ([2]; 10 ug/kg days -1 to 20, day 22): 0.010
- P, daily mucositis scores (Mann-Whitney rank sum) vs saline controls ([2]; 10 ug/kg days -1 to 20, day 24): 0.022
- P, daily mucositis scores (Mann-Whitney rank sum) vs saline controls ([2]; 10 ug/kg days -1 to 20, day 26): 0.015
- P, daily mucositis scores (Mann-Whitney rank sum) vs saline controls ([2]; 10 ug/kg days -1 to 20, day 28): < 0.001
- % of animal days with a mucositis score of 3 or higher ([2]; 10 ug/kg from day -1 to day 20): 34.2%
- P, chi-squared test vs controls, days with score of 3 or higher ([2]; 10 ug/kg from day -1 to day 20): < 0.001
- day of peak mean mucositis score ([2]; 10 ug/kg from day -1 to day 20): 16
- peak mean mucositis score ([2]; 10 ug/kg from day -1 to day 20): 2.9
- % Days >=3 ([2]; 10 ug/kg): 34.2%
- Days <3 ([2]; 10 ug/kg): 158
- Days >=3 ([2]; 10 ug/kg): 82
- P, daily mucositis scores (Mann-Whitney rank sum) vs saline controls ([2]; 100 ug/kg days -1 to 20, day 6): 0.015
- P, daily mucositis scores (Mann-Whitney rank sum) vs saline controls ([2]; 100 ug/kg days -1 to 20, day 22): 0.003
- P, daily mucositis scores (Mann-Whitney rank sum) vs saline controls ([2]; 100 ug/kg days -1 to 20, day 24): 0.005
- P, daily mucositis scores (Mann-Whitney rank sum) vs saline controls ([2]; 100 ug/kg days -1 to 20, day 26): < 0.001
- P, daily mucositis scores (Mann-Whitney rank sum) vs saline controls ([2]; 100 ug/kg days -1 to 20, day 28): < 0.001
- peak mean mucositis score ([2]; 100 ug/kg from day -1 to day 20): 2.8
- % of animal days with a mucositis score of 3 or higher ([2]; 100 ug/kg on days -1 to 20): 29.2%
- P, chi-squared test vs controls, days with score of 3 or higher ([2]; 100 ug/kg on days -1 to 20): < 0.001
- % Days >=3 ([2]; 100 ug/kg): 29.2%
- Days <3 ([2]; 100 ug/kg): 170
- Days >=3 ([2]; 100 ug/kg): 70
- P, daily mucositis scores (Mann-Whitney rank sum) vs saline controls ([2]; 1 mg/kg days -1 to 20, day 6): 0.015
- P, daily mucositis scores (Mann-Whitney rank sum) vs saline controls ([2]; 1 mg/kg days -1 to 20, day 20): 0.029
- P, daily mucositis scores (Mann-Whitney rank sum) vs saline controls ([2]; 1 mg/kg days -1 to 20, day 22): 0.012
- P, daily mucositis scores (Mann-Whitney rank sum) vs saline controls ([2]; 1 mg/kg days -1 to 20, day 24): 0.001
- P, daily mucositis scores (Mann-Whitney rank sum) vs saline controls ([2]; 1 mg/kg days -1 to 20, day 26): 0.003
- P, daily mucositis scores (Mann-Whitney rank sum) vs saline controls ([2]; 1 mg/kg days -1 to 20, day 28): < 0.001
- day of peak mean mucositis score ([2]; 1 mg/kg from day -1 to day 20): 16
- peak mean mucositis score ([2]; 1 mg/kg from day -1 to day 20): 3.2
- % Days >=3 ([2]; 1 mg/kg): 30.8%
- Days <3 ([2]; 1 mg/kg): 166
- Days >=3 ([2]; 1 mg/kg): 74
- Mucositis score, day 6 ([2]; Group 2 (SCV-07 10 μg/kg, day -1 to day 20), individual animal scores, two scores per animal, day 6): 0 (14×) and 1 (6×)
- Mucositis score, day 8 ([2]; Group 2 (SCV-07 10 μg/kg, day -1 to day 20), individual animal scores, two scores per animal, day 8): 0 (18×) and 1 (2×)
- severe mucositis, % of animals days evaluated ([2]; SCV-07 treated animals (all test groups), 50% in vehicle controls): approximately 30%
- % of animal days with a mucositis score of 3 or higher [2, 4]: 30.8%
- P, chi-squared test vs controls, days with score of 3 or higher [2, 4]: < 0.001
- average weight gain, % of starting weight during the study ([3]; 1 ug/kg on days -1 to 16): 68.4%
- average weight gain, % of starting weight during the study ([3]; 10 ug/kg on days -1 to 16): 70.3%
- average weight gain, % of starting weight during the study ([3]; 100 ug/kg on days -1 to 16): 82.0%
